Earlier results on 1 compound are cited in patent US20200197494A1, “PEPTIDE COMPOSITIONS AND METHODS OF USE” (Dauntless Pharmaceuticals, priority 2017, published 2020).

The conditions of this series: subcutaneous administration; background statement.

With `C[C@@H](O)[C@@H]1NC(=O)[C@H](CCCCN)NC(=O)[C@@H](Cc2c[nH]c3ccccc23)NC(=O)[C@H](Cc2ccccc2)NC(=O)[C@@H](NC(=O)[C@H](N)Cc2ccccc2)CSSC[C@@H](C(=O)N[C@H](CO)[C@@H](C)O)NC1=O` [octreotide, D-phenylalanyl-L-cysteinyl-L-phenylalanyl-D-tryptophyl-L-lysyl-L-threonyl-N-[2-hydroxy-1-(hydroxymethyl)propyl]-L-Cysteinamide, cyclic (2→7)-disulfide], the “peptide present in the blood stream (bioavailability)” value is listed as approximately 100%.
